According to US20240043943A1, “METHODS AND COMPOSITIONS FOR PROTEASE REPORTER ASSAYS AND MODULATORS” (712 NORTH, INC., priority 2021, published 2024):
“Also recorded” adds a separate entry of the source.

Legend:
[1] = target: T1, Luke (native NanoLuc enzyme) (Oplophorus gracilirostris, UniProt Q9GV45, A31E/A60N/A81I/F95D/I117V/K70R/L54V/L99Q/M102K/N193R/P142E/Q151K/Q38R/Q45L/V71I/Y165I); experiment: Luke (native NanoLuc) control cell bioluminescence assay in Hek293T cells; assay type: cell-based; settings: for bioluminescence of Luke cells in dose-response: 30 minutes incubation
T1 construct: expressed in transfected cells
Text: (§1) Luke-S1 is targeted to the mitochondrial inner membrane by an 86 amino acid portion of OPA1's […] with the protein sequence SEQ ID NO: 27 and the DNA sequence SEQ ID ID NO:28.

Luke-TEV reporter [2] = experiment: Luke-TEV control reporter bioluminescence assay in Hek293T cells; assay type: cell-based, human
Text: as §1

OMA1 protease [3] = target: T2, OMA1 protease (Homo sapiens, UniProt Q96E52); experiment: Rep#01 OMA1 reporter bioluminescence assay in Hek293T cells; assay type: cell-based; set-up: The OMA1 enzyme is dormant under physiological cell culture conditions in these cells; endogenous in cells; host or cells: Hek293T cells, transiently or stably (Luke-S1 line, ATCC PTA-127022) expressing reporter #15; settings: 30 minutes exposure, CCCP 10 μM
T2 sequence (Q96E52 144-524): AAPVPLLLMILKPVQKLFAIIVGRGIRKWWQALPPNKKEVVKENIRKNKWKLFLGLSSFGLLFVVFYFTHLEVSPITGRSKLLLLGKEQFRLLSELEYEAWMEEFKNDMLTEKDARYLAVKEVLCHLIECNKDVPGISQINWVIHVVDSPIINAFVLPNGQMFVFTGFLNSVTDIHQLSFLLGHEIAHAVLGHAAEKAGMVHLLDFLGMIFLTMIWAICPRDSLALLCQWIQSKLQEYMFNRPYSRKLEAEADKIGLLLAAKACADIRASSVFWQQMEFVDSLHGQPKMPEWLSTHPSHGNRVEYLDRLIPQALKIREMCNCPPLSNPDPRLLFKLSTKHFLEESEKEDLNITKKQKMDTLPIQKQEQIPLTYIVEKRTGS
Text: Example 1 provides a nonlimiting example of generation and use of a reporter of present invention and illustrates its function. To this end, generation and use of reporter gene #01 (SEQ ID NO: 01) and reporter gene #15 (SEQ ID NO: 15) are described and their function compared to each other. The general design of a reporter of present invention is illustrated in FIG. 1A and its working principle in FIG. 1B. A reporter in general, and reporter gene #01 and reporter gene #15 in particular, can be generated as follows. DNA sequences of a reporter may be codon-optimized in silico or by any other way for expression in a suitable host. DNA sequences of reporter genes #01 and #15 were codon-optimized for expression in humans (SEQ ID NO: 02 and SEQ ID NO: 16, respectively). The (optimized) sequences were synthesized and cloned into a pcDNA3.1 expression vector under the control of a CMV promotor (see FIG. 1 for an illustration of such vector). Of course, an expression system and a host should match for best results. The host in this example were Hek293T cells, which were maintained under standard culture conditions in DMEM with 10% Fetal Bovine Serum and 1% Pen/Strep. For an experiment, Hek293T cells were seeded in opaque white tissue-culture treated 96-well plates at 80% confluency and transfected with vectors carrying reporter gene #01 and reporter gene #15 and 24 hours later incubated for 30 minutes at 37° C. in OptiMEM or in OptiMEM with 10 μM CCCP. After 30 minutes, the OptiMEM cell-culture media was replaced with luciferase substrate (furimazine, Promega) diluted 1:100 in OptiMEM, and bioluminescence was measured with a Fluoroskan Ascent FL (Thermo Scientific) using a 517 nm single-pass filter and 200 milliseconds integration time. […]
Example 5 illustrates how mitochondrial toxicity can be measured with reporter and assays of present invention. […] Hek293T cells expressing reporter #01 and #15 were exposed to CCCP, tipranavir and sorafenib (in OptiMEM) for 30 minutes before the medium was replaced with furimazine (1:100), and bioluminescence measured.

reporter #01 = experiment: Rep#01 reporter hydrolysis in Hek293T cells by Western blot; assay type: cell-based, human; settings: 10 μM CCCP, 30 minutes
Method: Example 2 refers to FIG. 4 and illustrates hydrolysis of reporter #01 and reporter #15. For this example, transfected cells were selected by puromycin. Reporter cells were exposed for 30 minutes to 10 μM CCCP before being harvested in RIPA buffer and subjected to 12% SDS-PAGE followed by Western-blotting. […] Full-length reporter #01 has a predicted size of 39.6 kDa but was not detected in Western blots. […] At the same time, reporter #15 is not processed upon import, but migrated at its expected size of 31.9 kDa. (Example 7 establishes mitochondrial import by showing co-migration of reporter #15 with OPA1 and OMA1 in mitochondria-enriched fractions.) Reporter #15 appears to be more abundant and stable, which may explain its better performance. […] This provides additional evidence that reporter #15 is indeed localized in mitochondria where it is recognized and hydrolyzed by OMA1. […] Therefore, phenanthroline was used as a positive control in the reporter assay. If reporter #15 indeed is cleaved by OMA1, then phenanthroline should prevent this at least to a certain extend by inhibiting OMA1 and accordingly preserving the signal. Hek293T cells were transfected with reporter gene #15 as described in the preceding example. […] After 30 minutes, the medium was replaced with furimazine (1:100 in OptiMEM), and bioluminescence measured as described in Example 1.

OPA1 = OPA1 hydrolysis in Hek293T cells by Western blot; assay type: cell-based, human; settings: 30 minutes
Text: (§2) OPA1 hydrolysis can be monitored by Western blotting. […] The predicted size of full-length Luke-S1 is 31.8 kDa.

OMA1 protease [4] = target: T2, OMA1 protease; experiment: Rep#15 / Luke-S1 OMA1 reporter bioluminescence assay in Hek293T cells; assay type: cell-based; set-up: The OMA1 enzyme is dormant under physiological cell culture conditions in these cells; endogenous in cells; host or cells: Hek293T cells, transiently or stably (Luke-S1 line, ATCC PTA-127022) expressing reporter #15; settings: Hek293T, 30 minutes exposure; CCCP 10 μM
Text: Example 1 provides a nonlimiting example of generation and use of a reporter of present invention and illustrates its function. To this end, generation and use of reporter gene #01 (SEQ ID NO: 01) and reporter gene #15 (SEQ ID NO: 15) are described and their function compared to each other. The general design of a reporter of present invention is illustrated in FIG. 1A and its working principle in FIG. 1B. A reporter in general, and reporter gene #01 and reporter gene #15 in particular, can be generated as follows. DNA sequences of a reporter may be codon-optimized in silico or by any other way for expression in a suitable host. DNA sequences of reporter genes #01 and #15 were codon-optimized for expression in humans (SEQ ID NO: 02 and SEQ ID NO: 16, respectively). The (optimized) sequences were synthesized and cloned into a pcDNA3.1 expression vector under the control of a CMV promotor (see FIG. 1 for an illustration of such vector). Of course, an expression system and a host should match for best results. The host in this example were Hek293T cells, which were maintained under standard culture conditions in DMEM with 10% Fetal Bovine Serum and 1% Pen/Strep. For an experiment, Hek293T cells were seeded in opaque white tissue-culture treated 96-well plates at 80% confluency and transfected with vectors carrying reporter gene #01 and reporter gene #15 and 24 hours later incubated for 30 minutes at 37° C. in OptiMEM or in OptiMEM with 10 μM CCCP. After 30 minutes, the OptiMEM cell-culture media was replaced with luciferase substrate (furimazine, Promega) diluted 1:100 in OptiMEM, and bioluminescence was measured with a Fluoroskan Ascent FL (Thermo Scientific) using a 517 nm single-pass filter and 200 milliseconds integration time. […] Reporter #01 comprises a large part of OPA1's amino-terminus as mitochondrial targeting sequence, which is cleaved by the mitochondrial processing peptidase upon mitochondrial import (see Example 2). Reporter #15 was initially envisioned as a control for reporter #01. Reporter #15 therefore lacks the first 66 amino acids of reporter #01 believed to be essential for mitochondrial import.
Example 5 illustrates how mitochondrial toxicity can be measured with reporter and assays of present invention. The OMA1-OPA1 pathway basically serves as a “canary-in-the-coalmine” for a mitochondrial deterioration. […] Hek293T cells expressing reporter #01 and #15 were exposed to CCCP, tipranavir and sorafenib (in OptiMEM) for 30 minutes before the medium was replaced with furimazine (1:100), and bioluminescence measured.
The following non-limiting examples illustrate in more details the in vivo assessment of OMA1 protease activity utilizing an artificial luciferase reporter of present invention stably expressed in Hek293T cells.

Luke-TEV reporter [5] = experiment: Luke-TEV reporter cleavage in Hek293T cells by Western blot; assay type: cell-based, human; settings: 3 μM CCCP or 100 nM valinomycin
Text: as §2

Luke-S1 reporter = experiment: Rep#15 / Luke-S1 reporter cleavage in Hek293T cells by Western blot; assay type: cell-based, human; settings: for cleavage of the Luke-S1 reporter in Western blots: 3 μM CCCP or 100 nM valinomycin
Method: For this example, transfected cells were selected by puromycin. […] […] If reporter #15 indeed is cleaved by OMA1, then phenanthroline should prevent this at least to a certain extend by inhibiting OMA1 and accordingly preserving the signal. Hek293T cells were transfected with reporter gene #15 as described in the preceding example. After 24 hours, the transfected cells were incubated with 500 μM phenanthroline in OptiMEM. After 1 hour of pretreatment, CCCP in OptiMEM/phenanthroline was added. to a final concentration of 10 μM CCCP and cells incubated for another 30 minutes at 37° C. After 30 minutes, the medium was replaced with furimazine (1:100 in OptiMEM), and bioluminescence measured as described in Example 1.
as §2

OMA1 protease [6] = target: T2, OMA1 protease; experiment: Screen of 166 FDA-approved cancer drugs and 390 natural products in Luke-S1 assays; assay type: cell-based; set-up: The OMA1 enzyme is dormant under physiological cell culture conditions in these cells; endogenous in cells; host or cells: Hek293T cells, transiently or stably (Luke-S1 line, ATCC PTA-127022) expressing reporter #15; settings: valinomycin treated controls, ± SD
Method: Luke-S1 reporter cells were incubated with 10 μM of drugs for 60 minutes after which luciferase substrate was added and bioluminescence measured.

OMA1 protease [7] = target: T2, OMA1 protease; experiment: Rep#15 / Luke-S1 OMA1 reporter bioluminescence assay in Hek293T cells; assay type: cell-based; set-up: The OMA1 enzyme is dormant under physiological cell culture conditions in these cells; endogenous in cells; host or cells: Hek293T cells, transiently or stably (Luke-S1 line, ATCC PTA-127022) expressing reporter #15
OMA1 protease [8] = target: T2, OMA1 protease; settings: literature; cited from earlier work

T1 sequence (Q9GV45 with tags, fused parts or gaps with the stated changes): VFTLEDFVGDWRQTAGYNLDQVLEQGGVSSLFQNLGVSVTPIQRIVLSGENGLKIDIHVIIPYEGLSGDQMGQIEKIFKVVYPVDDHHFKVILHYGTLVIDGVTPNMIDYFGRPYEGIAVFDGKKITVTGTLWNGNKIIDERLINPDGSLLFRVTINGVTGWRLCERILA

| SMILES | bioluminescence of Luke cells in dose-response [1] | EC50 (Luke-TEV reporter [2]; Luke-TEV cells, 30 minutes incubation) [nM] | bioluminescence signal of reporter #01 (OMA1 protease [3]) | processing of reporter #01 in Western blot (reporter #01) | L-OPA1 proteolysis in Western blots (OPA1; 3 μM CCCP) | bioluminescence signal of reporter #15 (OMA1 protease [4]) | cleavage of the Luke-TEV reporter in Western blots (Luke-TEV reporter [5]) | cleavage of the Luke-S1 reporter in Western blots (Luke-S1 reporter) | processing of reporter #15 in Western blot (Luke-S1 reporter; 10 μM CCCP, 30 minutes) | real-time bioluminescence of Luke vs cells without valinomycin ([1]; 100 nM valinomycin added with luciferase substrate, after 10 minutes) | real-time bioluminescence of Luke-TEV vs cells without valinomycin (Luke-TEV reporter [2]; 100 nM valinomycin added with luciferase substrate) | signal of Luke-TEV cells in dose-response (Luke-TEV reporter [2]; 30 minutes incubation) | L-OPA1 proteolysis in Western blots (OPA1; 0.1 μM (100 nM) valinomycin) | signal intensity normalized to untreated cells (100%) (OMA1 protease [6]) [%] | real-time bioluminescence of Luke-S1 vs cells without valinomycin (OMA1 protease [7]; 100 nM valinomycin added with luciferase substrate, 25 minutes recording) | Luke-S1 signal in cells treated with OMA1 siRNA (OMA1 protease [7]; 100 nM valinomycin, 30 minutes) | Luke-S1 signal in cells treated with control siRNA (OMA1 protease [7]; 100 nM valinomycin, 30 minutes) | Luke-S1 signal in cells treated with OMA1 siRNA (OMA1 protease [7]; 100 nM valinomycin, 30 minutes, listed as Valinomycin) | effect on OMA1 protease (OMA1 protease [8]) |
| --- | --- | --- | --- | --- | --- | --- | --- | --- | --- | --- | --- | --- | --- | --- | --- | --- | --- | --- | --- |
| N#CC(C#N)=NNc1cccc(Cl)c1 [CCCP, carbonyl cyanide m-chlorophenyl hydrazone] | completely eliminated | 566 | significantly reduced bioluminescence | led to processing | complete disappearance of L-OPA1 isoforms; also recorded: complete L-OPA1 proteolysis | significantly reduced or substantially absent luciferase activity; also recorded: abolished; also recorded: significantly reduced bioluminescence | cleaved; also recorded: induced Luke-S1 and Luke-TEV cleavage | induced cleavage of the Luke-S1 reporter; also recorded: induced Luke-S1 and Luke-TEV cleavage | led to processing |  |  |  |  |  |  |  |  |  |  |
| CC(C)[C@@H]1NC(=O)[C@H](C)OC(=O)[C@@H](C(C)C)NC(=O)[C@@H](C(C)C)OC(=O)[C@H](C(C)C)NC(=O)[C@H](C)OC(=O)[C@@H](C(C)C)NC(=O)[C@@H](C(C)C)OC(=O)[C@H](C(C)C)NC(=O)[C@H](C)OC(=O)[C@@H](C(C)C)NC(=O)[C@@H](C(C)C)OC1=O [valinomycin] | no effects |  |  |  |  |  | cleaved; also recorded: induced Luke-S1 and Luke-TEV cleavage | induced cleavage of the Luke-S1 reporter; also recorded: induced Luke-S1 and Luke-TEV cleavage |  | no notable differences | much smaller difference | only a minor signal reduction | sufficed for OPA1 cleavage; also recorded: complete L-OPA1 proteolysis | 18.5 | marked signal reduction | no significant signal reduction | significant signal reduction | not in Luke-S1 cells treated with OMA1 siRNA | can activate the OMA1 protease |
